In PubChem BioAssay AID2060617 (Molecular Pharmacology Branch, DTP, NCI, 2025):
“And” between values parts separate entries of the source, which are not always exact repeats. Equal entries are not always repeated.

System: 485368-065-R4-J2-PDC spheroids with HUVEC/MSC, viability
Assay: Anticancer human tumor 485368-065-R4-J2-PDC patient-derived pancreatic carcinoma cell line growth inhibition [CLK]
Settings: for viability, T/C: stronger effect = lower value; active = viability on the fitted dose curve at most 10% of control; inactive = the rest
Text: A high-throughput screen of multi-cell type tumor spheroids was designed to identify active combinations of […] and targeted small molecules. Complex spheroids include a stromal component modeled by human endothelial cells (HUVEC) and fibroblasts modeled by human mesenchymal stem cells (MSCs). The concentration ranges selected for each drug and investigational agent were based upon clinically achievable concentrations if the clinical Cmax of the agent was known.
Compounds. The drugs and investigational agents: cirtuvivint (SM08502; NSC835563), CC-671 (NSC850746), vemurafenib (NSC761431), tapotoclax (NSC804041), sotorasib (NSC818433), adagrasib (NSC831453), MRTX-1133 (NSC836407), BAY2416964 (NSC825713), copanlisib (NSC816437), inavolisib (NSC800729), abemaciclib (NSC768073), osimertinib (NSC779217), entinostat (NSC756642), eltanexor (KPT-8602, NSC794443), venetoclax (NSC766270), ceralasertib (NSC777638), bortezomib (NSC756655), olaparib (NSC753686), talazoparib (NSC767125), alisertib (NSC759677), peposertib (NSC802822), gemcitabine (NSC613327), 5-fluorouracil (NSC19893), SN-38 (NSC673596), oxaliplatin (NSC266046), paclitaxel (NSC125973), and doxorubicin (NSC123127), were obtained from the National Cancer Institute (NCI) Developmental Therapeutics Program Chemical Repository. The FDA-approved anticancer drug set is available from the Developmental Therapeutics Program at https://dtp.cancer.gov/organization/dscb/obtaining/available plates.htm. […] The stock solutions were prepared in dimethyl sulfoxide (DMSO, Sigma-Aldrich, St. Louis, MO, cat. D2650), except for the platinum complexes which were prepared in saline (Quality Biological, Gaithersburg, MD, cat. 114-055-101), at 800-fold the tested concentration and stored at -70 degrees C prior to their use. All drugs and investigational agents were tested over a range starting from a high concentration at or near the clinical Cmax and decreasing in half-log increments. If the clinical Cmax for an agent had not been determined, the highest concentration tested was 10 microM.
Cell Culture. All cells were maintained in an incubator at 37 degrees C and 5% CO2 with 95% humidity. The PDC lines were cultured according to standard operating procedures established by the NCI PDMR. Briefly, all PDCs were thawed and cultured in Matrigel-coated flasks prepared with a working solution of 1X Ham's F-12 nutrient mix, without supplementation (Invitrogen, Waltham, MA, cat. 11765054), 100 U/mL penicillin-streptomycin (Invitrogen, cat. 15140122), and 2.5% Matrigel (Corning Inc., Corning, NY, cat. 354248) for the first three passages. The 947758-054-R-J2-PDC line was cultured in 6B/Colon 1A media, which includes advanced DMEM/F-12 (Thermo Fisher Scientific, cat. 12634028), 10 mM HEPES (Thermo Fisher Scientific, cat. 15630080), 1X GlutaMAX supplement (Thermo Fisher Scientific, cat. 35050061), 0.1 mg/mL primocin (InvivoGen, cat. ant-pm-2), 10% defined fetal bovine serum, heat inactivated (HyClone Laboratories Inc., cat. SH30070.03HI), 1.25 mM N-Acetyl-L-cysteine (Sigma-Aldrich, cat. A9165), 10 mM nicotinamide (Sigma-Aldrich, cat. N0636), 1X B-27 supplement (Thermo Fisher Scientific, cat. 17504044), 1X N-2 supplement (Thermo Fisher Scientific, cat. 17502048), and 10 microM Y-27632 dihydrochloride (Tocris Bioscience, cat. 1254). The 876862-298-R-J1-PDC was cultured in 6E media, which includes all 6B/Colon 1A media components plus 50% L-WRN conditioned media (ATCC, cat. CRL-3276), 50 ng/mL recombinant human EGF recombinant protein (hEGF; Thermo Fisher Scientific, cat. PHG0311), 10 ng/mL recombinant human fibroblast growth factor 10 (hGFG-10; PeproTech, cat. 100-26), 1 ng/mL recombinant human fibroblast growth factor 2 (hFGF-2; PeproTech, cat. 100-18B), and 1 µM prostaglandin E2 (PGE2; Tocris, cat. 2296). The 227483-062-R1-J1-PDC line was cultured in Panc media, containing all 6E components except hFGF-2, with the addition of 500 nM SB-431542 (Selleckchem, cat. S1067) and 10 nM gastrin (Tocris, cat. 3006). […]

[1] = curve of first compound, second compound 0.0316 µM
[2] = curve of first compound, second compound 0.1 µM
[3] = curve of first compound, second compound 0.316 µM
[4] = curve of first compound, second compound 1 µM
[5] = curve of first compound, second compound 3.16 µM
[6] = curve of first compound, second compound 10 µM
[7] = second compound 0.0316 µM, first compound 0.00316 µM
[8] = second compound 0.0316 µM, first compound 0.01 µM
[9] = second compound 0.0316 µM, first compound 0.0316 µM
[10] = second compound 0.0316 µM, first compound 0.1 µM
[11] = second compound 0.0316 µM, first compound 0.316 µM
[12] = second compound 0.0316 µM, first compound 1 µM
[13] = second compound 0.1 µM, first compound 0.00316 µM
[14] = second compound 0.1 µM, first compound 0.01 µM
[15] = second compound 0.1 µM, first compound 0.0316 µM
[16] = second compound 0.1 µM, first compound 0.1 µM
[17] = second compound 0.1 µM, first compound 0.316 µM
[18] = second compound 0.1 µM, first compound 1 µM
[19] = second compound 0.316 µM, first compound 0.00316 µM
[20] = second compound 0.316 µM, first compound 0.01 µM
[21] = second compound 0.316 µM, first compound 0.0316 µM
[22] = second compound 0.316 µM, first compound 0.1 µM
[23] = second compound 0.316 µM, first compound 0.316 µM
[24] = second compound 0.316 µM, first compound 1 µM
[25] = second compound 1 µM, first compound 0.00316 µM
[26] = second compound 1 µM, first compound 0.01 µM
[27] = second compound 1 µM, first compound 0.0316 µM
[28] = second compound 1 µM, first compound 0.1 µM
[29] = second compound 1 µM, first compound 0.316 µM
[30] = second compound 1 µM, first compound 1 µM
[31] = second compound 3.16 µM, first compound 0.00316 µM
[32] = second compound 3.16 µM, first compound 0.01 µM
[33] = second compound 3.16 µM, first compound 0.0316 µM
[34] = second compound 3.16 µM, first compound 0.1 µM
[35] = second compound 3.16 µM, first compound 0.316 µM
[36] = second compound 3.16 µM, first compound 1 µM
[37] = second compound 10 µM, first compound 0.00316 µM
[38] = second compound 10 µM, first compound 0.01 µM
[39] = second compound 10 µM, first compound 0.0316 µM
[40] = second compound 10 µM, first compound 0.1 µM
[41] = second compound 10 µM, first compound 0.316 µM
[42] = second compound 10 µM, first compound 1 µM
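Also: spheroids exposed to compounds for seven days.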
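For viability, T/C in this document: 100% = DMSO vehicle control wells.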

COc1c(OCCCN2CCOCC2)ccc2c3n(c(=NC(=O)c4cnc(N)nc4)nc12)CCN3 + CN1CCN(c2cc(C(=O)Nc3cc4cc(-c5cnn(C)c5)ccc4cn3)ccn2)CC1
inactive: viability, T/C [7] 102% | viability, T/C [8] 113% | viability, T/C [9] 85.8% | viability, T/C [10] 71.3% | viability, T/C [11] 42% | viability, T/C [12] 37.8% | viability, T/C [13] 93.7% | viability, T/C [14] 99.9% | viability, T/C [15] 82.7% | viability, T/C [16] 53.7% | viability, T/C [17] 32.4% | viability, T/C [18] 33.2% | viability, T/C [19] 69.4% | viability, T/C [20] 61.1% | viability, T/C [21] 45.1% | viability, T/C [22] 22.4% | viability, T/C [23] 16.4% | viability, T/C [24] 22.5%
117 nM: IC50 [2]
245 nM: IC50 [1]
active: viability, T/C [25] 2.4% | viability, T/C [26] 1.65% | viability, T/C [27] 1.92% | viability, T/C [28] 0.96% | viability, T/C [29] 1.07% | viability, T/C [30] 5.51% | viability, T/C [31] 1.02% | viability, T/C [32] 2.04% | viability, T/C [33] 1.56% | viability, T/C [34] 1.95% | viability, T/C [35] 2.07% | viability, T/C [36] 1.38% | viability, T/C [37] 1.34% | viability, T/C [38] 2.28% | viability, T/C [39] 3.18% | viability, T/C [40] 3.27% | viability, T/C [41] 2.35% | viability, T/C [42] 2%
22 nM: IC50 [3]
< 3.16 nM: IC50 [4] | IC50 [5] | IC50 [6]

COc1c(OCCCN2CCOCC2)ccc2c3n(c(=NC(=O)c4cnc(N)nc4)nc12)CCN3
inactive: viability, T/C (compound 0.00316 µM) 97% and 92.1% | viability, T/C (compound 0.01 µM) 101% and 121% | viability, T/C (compound 0.0316 µM) 109% and 111% | viability, T/C (compound 0.1 µM) 77.3% and 65.7% | viability, T/C (compound 0.316 µM) 50.9% and 52% | viability, T/C (compound 1 µM) 41.1% and 39.6%
281 nM and 248 nM: IC50 (curve of compound)

CCCS(=O)(=O)Nc1ccc(F)c(C(=O)c2c[nH]c3ncc(-c4ccc(Cl)cc4)cc23)c1F
inactive: viability, T/C (compound 0.0316 µM) 103% and 95.3% | viability, T/C (compound 0.1 µM) 109% and 96.8% | viability, T/C (compound 0.316 µM) 95.8% and 90.5% | viability, T/C (compound 1 µM) 93.7% and 90.6% | viability, T/C (compound 3.16 µM) 91.3% and 80.7% | viability, T/C (compound 10 µM) 123% and 108%
> 10000 nM: IC50 (curve of compound)

C=CC(=O)N1CCN(c2nc(=O)n(-c3c(C)ccnc3C(C)C)c3nc(-c4c(O)cccc4F)c(F)cc23)C(C)C1 (stereo not given)
inactive: viability, T/C (compound 0.0316 µM) 96.8% and 96.9% | viability, T/C (compound 0.1 µM) 96.4% and 107% | viability, T/C (compound 0.316 µM) 99.8% and 100% | viability, T/C (compound 1 µM) 97.9% and 106% | viability, T/C (compound 3.16 µM) 92.3% and 88.3% | viability, T/C (compound 10 µM) 89.2% and 93.7%
> 10000 nM: IC50 (curve of compound)

COc1c(OCCCN2CCOCC2)ccc2c3n(c(=NC(=O)c4cnc(N)nc4)nc12)CCN3 + CNC(=O)c1ccc(Nc2nc(OC3CCCC3)c3c(-c4ccc5nc(C)oc5c4)c[nH]c3n2)c(OC)c1
35.3 nM: IC50 [6]
243 nM: IC50 [2]
136 nM: IC50 [3]
inactive: viability, T/C [7] 81.5% | viability, T/C [8] 124% | viability, T/C [9] 111% | viability, T/C [10] 66.1% | viability, T/C [11] 44.5% | viability, T/C [12] 40.5% | viability, T/C [13] 103% | viability, T/C [14] 121% | viability, T/C [15] 110% | viability, T/C [16] 68.4% | viability, T/C [17] 48% | viability, T/C [18] 39.9% | viability, T/C [19] 72.4% | viability, T/C [20] 80.8% | viability, T/C [21] 72.6% | viability, T/C [22] 54.9% | viability, T/C [23] 36.2% | viability, T/C [24] 37.3% | viability, T/C [25] 76.7% | viability, T/C [26] 65.4% | viability, T/C [27] 59.6% | viability, T/C [28] 42.1% | viability, T/C [29] 31.1% | viability, T/C [30] 30.5% | viability, T/C [31] 71.2% | viability, T/C [32] 61.2% | viability, T/C [33] 56.2% | viability, T/C [34] 38.5% | viability, T/C [35] 28.4% | viability, T/C [36] 28.5% | viability, T/C [37] 66.4% | viability, T/C [38] 65.3% | viability, T/C [39] 49.7% | viability, T/C [40] 38.8% | viability, T/C [41] 27.1% | viability, T/C [42] 30.1%
42.6 nM: IC50 [5]
220 nM: IC50 [1]
54.9 nM: IC50 [4]
